From a melting point compilation (Tetko et al.; mined from patent text by program, amines drawn as free bases though some values may be those of a salt)

First: O=C(c1cc2[nH]nc(-c3cc4cc(CO)ccc4[nH]3)c2s1)N1CCN(c2ccc(F)cc2)CC1
Second: COCCN(C)c1nccc(Oc2ccc(NC(=O)c3cc(F)cc(N4CCOCC4)c3)c3ccccc23)n1
The melting point of the first is higher: 156 to 158 °C for the first, 96 to 98 °C for the second.

First: COC(=O)C1OC2(CCC3(CC2)OC(C(=O)OC)C(C(=O)OC)O3)OC1C(=O)OC (configuration not stated)
Second: CC(C)(C)NC(=O)[C@@H]1[C@@H](OC(=O)c2ccccc2)CCN1C(=O)OC(C)(C)C
The melting point of the first is lower: 75 to 77 °C for the first, 132 to 134 °C for the second.

First: CCCCOC(=O)c1ccc(Nc2nc(Nc3ccc(C(=O)OCCCC)cc3)nc(-c3cccn3Cc3ccccc3)n2)cc1
Second: O=C(NC(Cc1ccccc1)C(=O)O)c1ccc(-c2ccc(OCc3ccccc3)cc2)cc1 (configuration not stated)
The melting point of the first is lower: 173 to 174 °C for the first, 302 °C for the second.

First: Oc1cccc(-c2cnc3cnc(-c4cccc(O)c4)nc3c2)c1
Second: OCc1cccc(-c2ncc(Br)cn2)c1
The melting point of the first is higher: 264 to 265 °C for the first, 115 to 116 °C for the second.

First: CCOc1cc(C#N)ccc1C(=O)O
Second: COc1cc([N+](=O)[O-])c(N)cc1C(=O)O
The melting point of the first is lower: 170 to 172 °C for the first, 252 to 255 °C for the second.

First: CN(SN1CCOCC1)C(=O)Oc1cccc2c1OC(C)(C)C2
Second: O=C(CN1CCOCC1)Nc1ccn(-c2ccc(Cl)c(Cl)c2)n1
The melting point of the first is lower: 75 to 78 °C for the first, 125 to 127 °C for the second.

Compared with `O=C(OCN1C(=O)CN(CCN2CC(=O)N(COC(=O)c3ccc4c(c3)OCO4)C(=O)C2)CC1=O)c1ccc2c(c1)OCO2`, `COc1ccc2[nH]c3c(c2c1)C[C@@]1(C)C(=O)N(CCN2CCCC2)C(=O)N1[C@@H]3c1cccc(O)c1` (racemic) is higher in melting point: 195 to 198 °C for the first, 252 to 255 °C for the second.

First: CC(CC(=O)O)Oc1ccc(Oc2ccccc2)c(NS(C)(=O)=O)c1 (configuration not stated)
Second: CCCc1c(OC(C(=O)O)c2ccc(OC)cc2)ccc(C(C)=O)c1O (configuration not stated)
The melting point of the first is lower: 121 to 124 °C for the first, 154 to 156 °C for the second.

First: NC1=NC(c2ccc(OC(F)F)cc2)(c2cccc(-c3cccnc3F)c2)C2=NCC3(CC3)CN12 (configuration not stated)
Second: NS(=O)(=O)c1ccc(-c2[nH]c3ccc(Cl)cc3c2-c2ccccc2)cc1
The melting point of the first is lower: 98 to 108 °C for the first, 297 to 299 °C for the second.

`O=C1CCC(N2C(=O)c3cccc(OCc4ccc(CN5CCC(c6ccc(Cl)cc6)CC5)cc4)c3C2=O)C(=O)N1` (configuration not stated) and `Oc1ccc2c(c1)CCN(Cc1ccc(-c3ccccc3)cc1)C2` cannot be ordered by melting point: 236 to 238 °C for the first, 235 to 237 °C for the second.

First: CCSc1nsc(NC(=O)NC)c1C#N
Second: CNC(=O)C(Cc1ccc([N+](=O)[O-])cc1)NC(=O)Nc1n[nH]c(=S)s1 (configuration not stated)
The melting point of the first is higher: 246 °C for the first, 228 to 230 °C for the second.

First: COC(=O)NC1CCN(c2nc(N3CCOCC3)c3ncnc(N(C)Cc4ccccc4)c3n2)CC1
Second: Nc1nc2c(c(N3CCN(Cc4ccccc4)CC3)n1)SCCC2
The melting point of the first is lower: 110 °C for the first, 124 to 127 °C for the second.

First: NC(=O)c1cnn2cccc2c1NCC1CCCO1 (configuration not stated)
Second: Cc1ccccc1C(=O)Nc1ccc(C(=O)N2CCCC(N)c3ccccc32)cc1 (configuration not stated)
The melting point of the first is lower: 120 °C for the first, 198 to 200 °C for the second.

First: CCn1c(-c2c(Cl)cccc2Cl)nc(-c2ccnc(OC)c2)c1-c1ccc(Cl)cc1
Second: Cc1ccc(-c2nc(Sc3ccc(Cl)cc3)cc(N3CCN(C)CC3)n2)cc1
The melting point of the first is higher: 138 to 140 °C for the first, 104 to 105 °C for the second.

Compared with `NC(=O)c1nc(-c2ccc(O)cc2)cs1`, `O=C(COc1ccc(Cl)cc1)c1ccc(Br)s1` is lower in melting point: 223 to 227 °C for the first, 128 to 130 °C for the second.

First: O=C(NCN1CCN(c2ccccn2)CC1)c1ccccc1
Second: O=C(C1Oc2ccccc2OC1c1ccccc1)N1CCOCC1 (configuration not stated)
The melting point of the first is lower: 125 to 127 °C for the first, 148 to 150 °C for the second.

First: CCCCCCC1C(=O)NC(C(=O)SCc2ccccc2)(C(O)C2C=CCCC2)C1(C)O (configuration not stated)
Second: CC1(C)CC(=O)N(C(=O)OCc2ccccc2)CC(C)(C)N1
The melting point of the first is higher: 138 °C for the first, 86 to 88 °C for the second.

First: CCOC(=O)OC1=C(c2ccccc2)C(CCC(=O)O)OC1=O (configuration not stated)
Second: O=C(O)Cc1ccc(Cc2ccccc2CC(=O)O)cc1
The melting point of the first is lower: 139 to 141 °C for the first, 155 to 156 °C for the second.

Compared with `O=c1[nH]c2cc(Br)c3c(c2[nH]c1=O)CN(CCc1ccccc1)CC3`, `OC(CCc1ccccc1)c1cc2ccncc2[nH]1` (configuration not stated) is lower in melting point: 290 to 295 °C for the first, 162 to 166 °C for the second.

Compared with `Cc1c(C#N)ccc(N)c1C#N`, `Cc1c(Cl)ccc(Br)c1Cl` is lower in melting point: 209 to 210 °C for the first, 32 to 33 °C for the second.

First: O=C(O)CCCOc1ccc(C2=NNC(=O)CC2)cc1Cl
Second: O=C(O)CCSc1cccc(Br)c1
The melting point of the first is higher: 195 to 197 °C for the first, 87 to 88 °C for the second.

First: CC(C)(C)c1onc(NS(=O)(=O)c2ccccc2)c1Br
Second: CC(C)(C)N(NC(=O)c1ccccc1)C(=O)C1CCCCC1
The melting point of the first is lower: 139 to 141 °C for the first, 202 to 204 °C for the second.

First: COc1ccc(C(=O)O)c(OCc2cccc(OCc3ccc4ccccc4n3)c2)c1
Second: O=C(CI)c1cc(OCc2ccccc2)c(OCc2ccccc2)c(OCc2ccccc2)c1
The melting point of the first is higher: 117 to 118 °C for the first, 110 to 112 °C for the second.

First: CC1(COC2(C(F)(F)F)CN(C3CC3)C(=O)Nc3ccc(Cl)cc32)CC1 (configuration not stated)
Second: Nc1ccc(N2CCOCC2)c(C(F)(F)F)c1
The melting point of the first is higher: 166 to 167 °C for the first, 149 to 151 °C for the second.

First: COc1cc2ncc(C#N)c(Nc3ccc(O)cc3C)c2cc1OC
Second: COc1cc(Nc2c(C#N)cnc3cc(-c4ccc(CN(C)C)cc4)sc23)cc(OC)c1OC
The melting point of the first is higher: greater than 250 °C for the first, 199 to 201 °C for the second.

First: COc1ccc2c(c1)NC(c1ccccc1)CO2 (configuration not stated)
Second: O=C1CN=C(c2ccccc2Cl)c2ccccc2N1
The melting point of the first is lower: 79 to 81 °C for the first, 109 to 111 °C for the second.

First: COC(=O)[C@@H](NC(=O)Nc1n[nH]c(=S)s1)[C@@H](C)OCc1ccccc1
Second: Cc1cc(OCc2ccccc2)c(F)cc1[N+](=O)[O-]
The melting point of the first is lower: 88 to 90 °C for the first, 95 °C for the second.

First: CC(O)(C(O)CI)C(O)CI (configuration not stated)
Second: CCc1cc(C=O)c(O)c(S(C)(=O)=O)c1
The melting point of the first is lower: 105 to 106 °C for the first, 114 to 116 °C for the second.

First: O=C(NCC12CC3CC(CC(C3)C1)C2)c1cc(I)cnc1Cl
Second: CSC1CCC2C3CCC4=CC(=O)C=CC4(C)C3C(=O)CC12C (configuration not stated)
The melting point of the first is lower: 163 to 164 °C for the first, 180 to 183 °C for the second.

Compared with `O=C(O)CC12CCC(=O)N1C(=O)CC2`, `O=C(O)CN(C(=O)c1ccccc1S)C1CCCC1` is lower in melting point: 177 to 180 °C for the first, 148 to 150 °C for the second.

First: O=C1Nc2cc(NC(=O)c3cccn(-c4ccccc4)c3=O)ccc2/C1=C/c1ccc[nH]1
Second: O=C(Nc1ccc(C2=CN(C(=O)OCc3ccccc3)CCC2)c(F)c1)OCc1ccccc1
The melting point of the first is higher: greater than 300 °C for the first, 138 to 139 °C for the second.

First: COc1ccc(-c2cc(=O)c3c(OC)c(I)c(OC)cc3o2)cc1
Second: COc1cc2ccccc2cc1-c1nc(N)nc(N)n1
The melting point of the first is lower: 191 to 194 °C for the first, 243 to 244 °C for the second.

First: CCN(CC)c1ccc(C2(N(c3ccc(N(C)C)cc3)c3ccc(N(C)C)cc3)OC(=O)c3ccccc32)c(C)c1 (configuration not stated)
Second: CCN(CC)CCn1nc2c3c(c(NC(=O)CN(CCOCc4ccccc4)Cc4ccccc4)ccc31)Oc1ccc(O)cc1-2
The melting point of the first is lower: 67 to 83 °C for the first, 165 to 168 °C for the second.

First: CCN(CC)CCNc1cc(Cl)c(N)c(CCN(CC)CC)c1[N+](=O)[O-]
Second: CCCOc1ccc(CCl)cc1-c1nc2c(CCC)nn(C)c2c(=O)[nH]1
The melting point of the first is lower: 90 °C for the first, 102 to 104 °C for the second.

First: O=C1c2c(-c3ccccc3)c3cc(Cl)ccc3n2CCN1CCN1CCCC1
Second: Cc1cnc2c(c1-c1ccccc1)C(=O)N(Cc1cc(C(F)(F)F)cc(C(F)(F)F)c1)CCN(C)C2=O
The melting point of the first is lower: 134 to 136 °C for the first, 203 to 205 °C for the second.

Compared with `COC(=O)c1ccc2c(=O)c3ccccc3ccc2c1`, `COC(=O)c1cc2c3ccccc3nc(C)n2n1` is higher in melting point: 115 to 116 °C for the first, 155 to 156 °C for the second.

Compared with `N#CC(C#N)(COc1ccccc1Cl)NC(=O)c1ccc(OC(F)(F)F)cc1`, `CC(C)Oc1ccc(/C=C(\NC(=O)c2ccc(OCCCCC3CC3)cc2)C(=O)NCCO)cc1` is lower in melting point: 154 to 155 °C for the first, 53 to 55 °C for the second.

First: Cc1ccc(S(=O)(=O)OC2CCCC2)cc1
Second: CN1CCCC1=NC(=O)Nc1ccc(F)cc1
The melting point of the first is lower: less than 30 °C for the first, 113 to 115 °C for the second.

Compared with `Cc1c(-c2cncnc2)ssc1=S`, `Clc1ccc(CC2(c3cccnc3)OCCO2)c(Cl)c1` is lower in melting point: 184 °C for the first, 76 to 78 °C for the second.

First: Fc1cc(F)c(-c2c(Cl)nc3c(Cl)cnn3c2Cl)c(F)c1
Second: CC(C)(C)Sc1c(C#N)nn(-c2c(Cl)cc(C(F)(F)F)cc2Cl)c1N
The melting point of the first is lower: 128 °C for the first, 196 to 198 °C for the second.

First: COCc1c(-c2nnc(N)o2)ncc2[nH]c3ccc(OCc4ccccc4)cc3c12
Second: OCCCCCCCCCCCOc1ccc(-c2nc(-c3ccccc3)nc(-c3ccc(OCCCCCCCCCCCO)cc3O)n2)c(O)c1
The melting point of the first is higher: 290 to 293 °C for the first, 126 to 135 °C for the second.

First: COc1cc2c3c(cccc3c1N1CCC(N)C1)C(=O)N(O)C2=O (configuration not stated)
Second: COC(=O)C(C)(SC)c1ccc(N2C(=O)c3ccccc3C2=O)cc1 (configuration not stated)
The melting point of the first is higher: 217 to 222 °C for the first, 142 to 145 °C for the second.

First: CC(=O)Nc1ccc2c(c1)NCC(CN(C)C)C2 (configuration not stated)
Second: CC(C)(C)OC(=O)N1CCc2ccccc2CC1
The melting point of the first is higher: 118 to 123 °C for the first, 88 to 89 °C for the second.

First: O=C(Nc1ccc(C(F)(F)F)cc1)Nc1cccc(S(=O)(=O)Nc2ccc(Cl)cc2)c1
Second: O=C(O)C1(c2ccc(Cl)cc2)OCC2(CO1)c1ccccc1Oc1ccccc12
The melting point of the first is lower: 196 to 198 °C for the first, 244 to 246 °C for the second.

Compared with `O=C1c2ccccc2C(=O)N1CCCCOc1ccncc1`, `CCCOc1ccccc1-c1nc(C=O)c[nH]1` is lower in melting point: 126 to 127 °C for the first, 104 to 105 °C for the second.

Compared with `COc1cc2c(cc1OC)CC(NCC(=O)O)C2`, `CCn1cc(C(=O)O)c(=O)c2cc(F)c(-n3cccc3)cc21` is higher in melting point: 250 °C for the first, 251 to 252 °C for the second.

Compared with `CC(C)C[C@@H]1NC(=O)OC1(c1ccccc1)c1ccccc1`, `Cc1cc(C)cc(C23SCCN2C(=O)c2ccccc23)c1` (configuration not stated) is lower in melting point: 212 to 214 °C for the first, 163 °C for the second.

First: Cc1ccc(CC(N)=NO)cc1C
Second: N=C(N)Nc1nc2ccc([N+](=O)[O-])cc2[nH]1
The melting point of the first is lower: 59 to 60 °C for the first, 305 to 307 °C for the second.

Compared with `O=C1Nc2ccccc2C12COc1cc3c(cc12)CCCO3` (configuration not stated), `Cc1ccc(CNc2ccc3c(CNC(=O)c4ccc(F)cc4)cccc3n2)o1` is lower in melting point: 216 to 220 °C for the first, 173 °C for the second.

First: CN(C)c1nc(C(F)(F)F)cc(=O)o1
Second: CN(C)S(=O)(=O)c1ccc(C(F)(F)F)cc1[N+](=O)[O-]
The melting point of the first is lower: 79 °C for the first, 102 to 104 °C for the second.

First: CC(C)CCS(=O)(=O)NC(=O)/C=C/c1cc(OC(C)C)nn1Cc1ccc(C(F)(F)F)cc1Cl
Second: CCCCCCCCCCC#Cc1csc(C=O)n1
The melting point of the first is higher: 139 to 140 °C for the first, 25.5 to 26 °C for the second.
